Laboratory results as given in patent US9173391B2, “Crystalline complexes of 4-hydroxy benzoic acid and selected pesticides” (BASF SE, priority 2009, dated 2015).
≈ marks a conversion by molar mass, not a printed value.

Experiment: physchem
Conditions: water, thermodynamic from solid

## C/C(=N\C#N)N(C)Cc1ccc(Cl)nc1 [crystalline acetamiprid, acetamiprid]
  solubility at 24 h: 2750 µg/mL (≈ 12.3 mM)
